Molecules are shown by their SMILES.

For one data set, the system named is Plasmodium falciparum. Briefly: Antiplasmodial activity against chloroquine and pyrimethamine-resistant Plasmodium falciparum K1 by microplate assay. Format: functional, organism-based.
A short description of data set [1]: Selectivity index, ratio of IC50 for rat L6 cells to IC50 for Trypanosoma brucei rhodesiense STIB 900. Format: toxicity, cell-based. The note with it: read-out: Ratio IC50.
The next data set deals with L6. Nature of the data set: Cytotoxicity against rat L6 cells. Format: cell-based.
Data set [2] deals with Trypanosoma brucei rhodesiense. Briefly: […] activity against Trypanosoma brucei rhodesiense STIB 900 by microplate assay. The format is functional, organism-based.
The nature of data set [3]: Selectivity index, ratio of IC50 for rat L6 cells to IC50 for chloroquine and pyrimethamine-resistant Plasmodium falciparum K1. The note with it: read-out: Ratio IC50. The format is toxicity, cell-based.

One may read the IC50 as the concentration needed to halve the response being measured. Lower therefore signals greater potency. Take `Clc1ccc(C2CC3(N4CCCCC4)CCN(CCc4ccccc4)C2C(c2ccc(Cl)cc2)C3)cc1` (racemic): the IC50 came to 730 nM in the data set on Plasmodium falciparum, 7890 nM with L6 and 1860 nM in data set [2]. For the same compound, the selectivity ratio is 4.24 in data set [1] and 10.8 in data set [3].
Consider `c1ccc(C2CC3(N4CCCC4)CCN(CCN4CCCC4)C2C(c2ccccc2)C3)cc1` (racemic), for which the IC50 in the data set with Plasmodium falciparum was determined as 500 nM; in the data set with L6, 58200 nM; in data set [2], 3380 nM. Moreover, the figures for the selectivity ratio in data set [1] and in data set [3] were 17.2 and 116, respectively.
For `CN1CCC2(N3CCCC3)CC(c3ccccc3)C1C(c1ccccc1)C2` (racemic) the same measures were 1720 nM, 92100 nM, 1860 nM, 49.5 and 53.5.
As to `c1ccc(CCN2CCC3(N4CCCCC4)CC(c4ccccc4)C2C(c2ccccc2)C3)cc1` (racemic), the results for the IC50 (with Plasmodium falciparum; with L6; in data set [2]) were 710 nM, 8400 nM and 1200 nM, respectively. Further, the selectivity ratio in data set [1] came to 7; in data set [3] it was 11.8.
With `c1ccc(CCN2CCC3(N4CCCC4)CC(c4ccccc4)C2C(c2ccccc2)C3)cc1` (racemic), the figures for the IC50 (in the data set with Plasmodium falciparum; in the data set on L6; in data set [2]) were 960 nM, 3690 nM and 930 nM, respectively. The selectivity ratio in data set [1] is 3.97; in data set [3], 3.84.
Take `Clc1ccc(C2CC3(N4CCCCC4)CCNC2C(c2ccc(Cl)cc2)C3)cc1` (stereo not given): the selectivity ratio was determined as 125 in data set [1] and 17.6 in data set [3].
For `c1ccc(C2CC3(N4CCCCC4)CCN(CCN4CCCC4)C2C(c2ccccc2)C3)cc1` (racemic), the figures for the IC50 (in the data set with Plasmodium falciparum; with L6; in data set [2]) were 92 nM, 156000 nM and 25600 nM, respectively. Also, the selectivity ratio in data set [1] is 6.09; in data set [3], 1690.
Take `CN(C)C12CCN(CCc3ccccc3)C(C(c3ccc(Cl)cc3)C1)C(c1ccc(Cl)cc1)C2` (racemic): the IC50 was 470 nM with Plasmodium falciparum, 3400 nM in the data set with L6 and 930 nM in data set [2]. In addition, the selectivity ratio in data set [1] was determined as 3.66; in data set [3], 7.23.
`CN1CCC2(N3CCCC3)CC(c3ccc(Cl)cc3)C1C(c1ccc(Cl)cc1)C2` (racemic): the 50% inhibitory concentration (IC50) with Plasmodium falciparum turned out to be 870 nM; in the data set on L6, 7340 nM; in data set [2], 350 nM. The selectivity ratio was 21 in data set [1] and 8.44 in data set [3].
With `CN(C)C12CCNC(C(c3ccc(Cl)cc3)C1)C(c1ccc(Cl)cc1)C2` (stereo not given), the selectivity ratio in data set [1] was determined as 143; in data set [3] it was 21.3.
On to `CN(C)C12CCN(Cc3ccccc3)C(C(c3ccccc3)C1)C(c1ccccc1)C2` (racemic), for which the IC50 is 600 nM in the data set with Plasmodium falciparum, 7330 nM in the data set with L6 and 1410 nM in data set [2]. The values for the selectivity ratio in data set [1] and in data set [3] were 5.2 and 12.2, respectively.
In the case of `C[C@@H]1CC[C@H]2[C@@H](C)C(=O)O[C@@H]3O[C@@]4(C)CC[C@@H]1[C@]32OO4` [ARTEMISININ], in the data set on Plasmodium falciparum, the IC50 was determined as 6.4 nM.
Regarding `c1ccc(CN2CCC3(N4CCCC4)CC(c4ccccc4)C2C(c2ccccc2)C3)cc1` (racemic), the 50% inhibitory concentration (IC50) in the data set with Plasmodium falciparum is 820 nM; in the data set on L6, 4650 nM; in data set [2] it was 900 nM. The selectivity ratio in data set [1] amounted to 5.17; in data set [3], 5.67.
Taken in the same sequence, the figures for `CN(C)C12CCN(CCc3ccccc3)C(C(c3ccccc3)C1)C(c1ccccc1)C2` (racemic) were 120 nM, 4600 nM, 570 nM, 8.07 and 38.3.
For the compound `CN1CCC2(N(C)C)CC(c3ccccc3)C1C(c1ccccc1)C2` (racemic), the selectivity ratio in data set [1] stood at 61.9. The IC50 with L6 amounted to 109000 nM; in data set [2] it was 1760 nM.
On to `Clc1ccc(C2CC3(N4CCCC4)CCN(CCc4ccccc4)C2C(c2ccc(Cl)cc2)C3)cc1` (racemic), for which the IC50 in the data set on Plasmodium falciparum was found to be 520 nM; in the data set on L6 it was 4220 nM; in data set [2], 1140 nM. For the same compound, the selectivity ratio was 3.7 in data set [1] and 8.12 in data set [3].
With `Clc1ccc(C2CC3(N4CCCC4)CCNC2C(c2ccc(Cl)cc2)C3)cc1` (stereo not given), the selectivity ratio in data set [1] was 152; in data set [3], 40.2.
Consider `CN(C)C12CCN(CCN3CCCC3)C(C(c3ccccc3)C1)C(c1ccccc1)C2` (racemic), for which the IC50 in the data set on Plasmodium falciparum is 590 nM; in the data set on L6, 80400 nM; in data set [2], 1320 nM. Also, the figures for the selectivity ratio in data set [1] and in data set [3] were 60.9 and 136, respectively.
